The source of these data is article PMC12494546, “Structural basis of heme scavenging by the ChtA and HtaA hemophores in Corynebacterium diphtheriae” (The Journal of Biological Chemistry, 2025).

Molecules are shown by their SMILES.

For experiment [1], the target named is T1, ChtA^CR (WT) (Corynebacterium diphtheriae, UniProt Q6NGJ3).
T1 construct: gene DIP1520; CR domain, ChtA residues 112-291 (K112-G291); N-terminal SUMO/6xHis tag removed by ULP1; apo-form
The experiment is described as follows: Isothermal titration calorimetry with apo-protein injected into hemin chloride at 25 °C in 50 mM Tris-HCl pH 8.0, 200 mM NaCl, 5% DMSO, fitted to a one-site binding model. The settings on record: SEM, n = 3. The text has this: (§1) Isothermal titration calorimetry
(§2) Protein samples were equilibrated in titration buffer supplemented with 5% (v/v) DMSO. […] Binding isotherms were fit to a one-site binding model using the program ORIGIN ([91]).

The target of experiment [2] is T2, K177G (Corynebacterium diphtheriae, UniProt Q6NGJ3, K177G).
T2 construct: gene DIP1520; CR domain, ChtA residues 112-291; N-terminal SUMO/6xHis tag removed by ULP1; apo-form
T2 sequence (Q6NGJ3 112-291 K177G): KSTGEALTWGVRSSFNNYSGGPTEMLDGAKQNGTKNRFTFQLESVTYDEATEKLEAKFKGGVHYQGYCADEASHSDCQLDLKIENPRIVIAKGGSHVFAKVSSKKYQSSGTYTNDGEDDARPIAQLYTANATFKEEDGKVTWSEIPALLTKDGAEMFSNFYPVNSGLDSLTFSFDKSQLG
The description is as above. The settings on record: SEM, n = 3.
From the text: as §1, §2

For experiment [3], the target named is T3, K177G + Y178H (Corynebacterium diphtheriae, UniProt Q6NGJ3, K177G/Y178H).
T3 construct: gene DIP1520; CR domain, ChtA residues 112-291; N-terminal SUMO/6xHis tag removed by ULP1; apo-form
Described as above. The settings on record: SEM, n = 3.
From the text: as §1, §2

Experiment [4] has as its target T4, Y129A (Corynebacterium diphtheriae, UniProt Q6NGJ3, Y129A).
T4 construct: gene DIP1520; CR domain, ChtA residues 112-291; N-terminal SUMO/6xHis tag removed by ULP1; apo-form
Described as above. The settings on record: n = 3.
From the text: as §1, §2

The target in experiment [5] is T5, Y178A (Corynebacterium diphtheriae, UniProt Q6NGJ3, Y178A).
T5 construct: gene DIP1520; CR domain, ChtA residues 112-291; N-terminal SUMO/6xHis tag removed by ULP1; apo-form
T5 sequence (Q6NGJ3 112-291 Y178A): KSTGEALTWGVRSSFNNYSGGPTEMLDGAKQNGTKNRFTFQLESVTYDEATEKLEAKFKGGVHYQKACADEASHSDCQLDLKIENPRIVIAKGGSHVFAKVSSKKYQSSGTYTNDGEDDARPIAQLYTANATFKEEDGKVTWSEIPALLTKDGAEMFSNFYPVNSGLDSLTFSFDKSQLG
The description is as above. The settings on record: SEM, n = 3.
From the text: as §1, §2

For experiment [6], the target named is T6, Y178H (Corynebacterium diphtheriae, UniProt Q6NGJ3, Y178H).
T6 construct: gene DIP1520; CR domain, ChtA residues 112-291; N-terminal SUMO/6xHis tag removed by ULP1; apo-form
The description is as above. The settings on record: SEM, n = 3.
From the text: as §1, §2

Experiment [7] deals with T7, HtaA^CR1 (Corynebacterium diphtheriae, UniProt Q6NIZ1).
T7 construct: gene DIP0625; N-terminal CR domain CR1, HtaA residues 36-221 (methods; S37-G214 in results); N-terminal SUMO/6xHis tag removed by ULP1
T7 sequence (Q6NIZ1 entry or part of it): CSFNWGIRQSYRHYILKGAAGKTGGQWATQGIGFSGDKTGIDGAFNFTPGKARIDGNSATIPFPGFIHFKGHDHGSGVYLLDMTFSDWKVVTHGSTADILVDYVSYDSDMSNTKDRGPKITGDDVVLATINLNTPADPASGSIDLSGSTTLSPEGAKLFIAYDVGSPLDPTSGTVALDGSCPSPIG
Description: Hemin partitioning between pairs of CR domains at equilibrium measured by native nano-ESI-MS in 50 mM ammonium acetate pH 6.9 at 24 °C, with Krel converted to KD using the ITC KD of ChtA^CR as reference. The settings on record: read-out: estimated KD values for hemin. The format is binding. The text has this:
(§3) The C. diphtheriae hemin-uptake system contains six CR domains that are located at distinct sites outside the cell (Fig. 1). […] Together, they represent nearly the full complement of C. diphtheriae’s CR domains (only the domains from ChtB and ChtC are missing, but they are expected to have similar binding properties as their paralogs, HtaB and ChtA, respectively). […] Similar measurements were made for the following protein pairs: HtaA^CR2/HtaB^CR, HtaA^CR1/HtaB^CR, HtaA^CR2/HtaA^CR1, ChtA^CR/HtaA^CR2, and ChtA^CR/HtaB^CR (Table S4).
(§4) nESI-MS was used for ligand (heme)-competition experiments between CR domain pairs to determine their relative heme dissociation constant Krelative (Krel) ([37], [56]). In this approach, two different CR domains (e.g. a >90% heme-loaded “heme donor” and a <10% heme-loaded “heme acceptor” CR domain) are mixed and allowed to come to equilibrium (>6 h, 24 °C). The resulting mixture is then analyzed by nESI-MS, where the apo- and holo-abundance of each CR domain is determined from the sum peak intensity from each of their charge states as described previously ([37]). The relative affinity between the CR pair tested can be determined by their nESI-MS abundances according to Equation 1, which is derived from the ratio of each CR’s KD for heme. Importantly, this analysis is independent of [heme] and Krel should be consistent across different concentrations of [heme donor] and [heme acceptor]; thus, we used at least three different holo-donor and apo-acceptor stoichiometry ratios to determine each Krel reported in Table S4.(eq. 1) KRelative=[CR^hemeacceptor][CR^hemedonor·heme]/[CR^hemedonor][CR^hemeacceptor·heme]=Ab(CR^hemeacceptor)Ab(CR^hemedonor·heme)/Ab(CR^hemedonor)Ab(CR^hemeacceptor·heme)
(§5) For nESI-MS heme-competition experiments, CR domains were first buffer-exchanged into 50 mM ammonium acetate (pH 6.9) using dialysis or gel filtration and protein concentration was determined by bicinchoninic acid assay or UV-visible absorbance at 280 nm. […]

Experiment [8] concerns the target T8, HtaA^CR2 (Corynebacterium diphtheriae, UniProt Q6NIZ1).
T8 construct: gene DIP0625; C-terminal CR domain CR2, HtaA residues 344-506 (G344-G506); N-terminal SUMO/6xHis tag removed by ULP1
Described as above. The settings on record: read-out: estimated KD values for hemin. It is filed as binding.
From the text: as §3, §4, §5

Experiment [9] has as its target T9, HtaB^CR (Corynebacterium diphtheriae, UniProt Q6NIY7).
T9 construct: gene DIP0629; CR domain, HtaB residues 30-273; N-terminal SUMO/6xHis tag removed by ULP1
The experiment is described as above. The format is binding. The settings on record: read-out: estimated KD values for hemin.
From the text: as §3, §4, §5

T1 sequence (Q6NGJ3 entry or part of it): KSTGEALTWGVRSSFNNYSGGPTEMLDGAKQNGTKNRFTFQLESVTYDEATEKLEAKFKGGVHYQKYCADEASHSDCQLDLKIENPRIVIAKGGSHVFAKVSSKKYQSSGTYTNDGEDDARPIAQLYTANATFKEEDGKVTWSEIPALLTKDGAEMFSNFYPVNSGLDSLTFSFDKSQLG
T8 sequence (Q6NIZ1 entry or part of it): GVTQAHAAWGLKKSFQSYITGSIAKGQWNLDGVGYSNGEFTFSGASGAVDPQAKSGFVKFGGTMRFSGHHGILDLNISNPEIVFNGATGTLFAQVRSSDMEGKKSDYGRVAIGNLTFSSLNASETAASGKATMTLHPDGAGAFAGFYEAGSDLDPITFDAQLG
T9 sequence (Q6NIY7 entry or part of it): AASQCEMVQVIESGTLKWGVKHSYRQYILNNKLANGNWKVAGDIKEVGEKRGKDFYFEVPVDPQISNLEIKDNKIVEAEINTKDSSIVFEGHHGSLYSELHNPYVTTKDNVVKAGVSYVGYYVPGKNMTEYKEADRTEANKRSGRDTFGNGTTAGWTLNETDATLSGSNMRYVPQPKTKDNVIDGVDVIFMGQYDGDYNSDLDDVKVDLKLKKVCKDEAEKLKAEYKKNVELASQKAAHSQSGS

On to `C=CC1=C(C)c2cc3[nH]c(cc4nc(cc5[nH]c(cc1n2)c(C)c5CCC(=O)O)C(CCC(=O)O)=C4C)c(C)c3C=C.[Fe+3]` [hemin, ferric heme (iron(III)-protoporphyrin IX; used as hemin chloride)], for which the Kd in experiment [1] is 22.4 ± 5.3 nM; in [2], 23.6 ± 0.8 nM; in experiment [3], 27.1 ± 9 nM; in experiment [4] it was greater than 500 nM; in experiment [5] it was 46.6 ± 9.6 nM; in experiment [6], 54.8 ± 1.9 nM. Further, the Kd in experiment [7] was 1.1 nM; in experiment [8], 0.85 nM; in experiment [9], 5.4 nM.
